This test in a line: Case report: atomoxetine treatment of a person with ADHD and tics (Example 1). The format is in vivo, human. From the text:
A person presented with ADHD and tics. […] At baseline, the tics included multiple motor and multiple vocal tics, some complex or in bouts. Their vocal tics were especially problematic and disruptive, causing difficulties for the child at school, in social situations, and when the family went out in public (for example, to a restaurant). The clinical global impression-severity score (CGI-S) is a seven-point scale (1=normal, 7=very severely ill) that summarizes a clinician's overall impression about how severe a patient's illness is compared to other patients the clinician has treated. Based on the parent's report, the retrospective CGI-S score for the child's tics at baseline was 5, markedly ill. The YGTSS is the Yale Global Tic Severity Scale and summarizes the number, severity and frequency of a patient's tics. The minimum score on the YGTSS is zero and the maximum is 50. Based on the parent's description the patient's baseline YGTSS was about 30.
After about 2 to 3 weeks of atomoxetine treatment, the patient's parent reported a single head tic and a few eye blinking tics in the previous week, and no vocal tics. The parent also reported that the patient's complex tics or compulsive behaviors (which had involved them playing with some doors with their feet in a somewhat stereotypical manner), had also stopped. […] The CGI-S score for the child's tics based on the interview with their parent was […], minimally ill. Based on the same interview, the YGTSS total score for the child was 8. The clinical global impression-improvement (CGI-I) score is a seven-point scale (1=very much improve, 7=very much worse) that summarizes a clinician's overall impression about how much a patient has improved with treatment as compared to where they were at baseline. The CGI-I score for the patient's tics was 1, very much improved.

Setting [1] is: after about 2 to 3 weeks of atomoxetine treatment.

For `CNCC[C@@H](Oc1ccccc1C)c1ccccc1` [atomoxetine, (R)-(−)-N-methyl-3-(2-methylphenoxy)-3-phenylpropylamine], under setting [1], the “complex tics or compulsive behaviors (mother's report)” value is listed as “stopped” and the “vocal tics in the previous week (mother's report)” value was “no vocal tics”. Also, the “YGTSS (Yale Global Tic Severity Scale) total score” value (person with ADHD and tics, after about 2 to 3 weeks of atomoxetine treatment, scale 0 to 50, baseline about 30) is 8. Also, for the setting “person with ADHD and tics, after about 2 to 3 weeks of atomoxetine treatment, seven-point scale (1=normal, 7=very severely ill), baseline 5”, the “clinical global impression-severity score (CGI-S) for the child's tics” value was 2a. Besides, under “person with ADHD and tics, after starting on atomoxetine”, the “change in tics after starting treatment” value is listed as “dramatic drop”. The ADHD result (person with ADHD and tics, on atomoxetine treatment) is reported as “improved”. The “clinical global impression-improvement (CGI-I) score for the patient's tics” value (person with ADHD and tics, seven-point scale (1=very much improve, 7=very much worse), compared to baseline) is 1.

The record behind these values is patent US20080200555A1, “USE OF NOREPINEPHRINE REUPTAKE INHIBITORS FOR THE TREATMENT OF TIC DISORDERS” (priority 2001, published 2008).
